Our source for the melting point values is patent US7608718B2, “4,5-dihydro-1H-pyrazole derivatives having potent CB1-antagonistic activity” (Solvay Pharmaceuticals B.V., priority 2001, dated 2009).

Structures are written as SMILES.

As for `CCCN(C)S(=O)(=O)N=C(NC)N1CC(c2ccccc2)C(c2ccc(Cl)cc2)=N1` (stereo not shown), the melting point fell in the range of 132 to 134 °C. The molecule `CN(C)S(=O)(=O)N=C(NCC(F)(F)F)N1CC(c2ccccc2)C(c2ccc(Cl)cc2)=N1` (stereo not shown) gave a melting point of 158 to 159 °C.

Regarding `CSC(=NS(=O)(=O)N1CCCCC1)N1CC(c2ccccc2)C(c2ccc(Cl)cc2)=N1` (stereo not shown), the melting point lay in the range of 192 to 194 °C. The molecule `CSC(=NS(=O)(=O)N1CCOCC1)N1CC(c2ccccc2)C(c2ccc(Cl)cc2)=N1` (stereo not shown) gave a melting point of 202 to 204 °C. `CSC(=NS(=O)(=O)N(C)C)N1CC(c2c(F)cccc2F)C(c2ccc(Cl)cc2)=N1` (stereo not shown) displayed a melting point of 181 to 185 °C.

Molecule `CCN(CC)S(=O)(=O)N=C(NC1CC1)N1CC(c2ccccc2)C(c2ccc(Cl)cc2)=N1` (stereo not shown) displayed a melting point of 150 to 151 °C. `CCN(C)C(=NS(=O)(=O)N1CCCCC1)N1CC(c2ccccc2)C(c2ccc(Cl)cc2)=N1` (stereo not shown): the melting point was 178 °C. The figure for `CCN(c1ccccc1)S(=O)(=O)N=C(NC)N1CC(c2ccccc2)C(c2ccc(Cl)cc2)=N1` (stereo not shown) is 145 to 147 °C; for `CNC(=NS(=O)(=O)N1CCCCC1)N1CC(c2cccc(C(F)(F)F)c2)C(c2ccc(Cl)cc2)=N1` (stereo not shown) it is 168 to 170 °C; for `CNC(=NS(=O)(=O)N(C)C)N1CC(c2cccc(C(F)(F)F)c2)C(c2ccc(Cl)cc2)=N1` (stereo not shown) it is 65 to 68 °C. `CCN(C)S(=O)(=O)N=C(NC)N1CC(c2cccnc2)C(c2ccc(Cl)cc2)=N1` (stereo not shown): the melting point was 125 to 128 °C.

As to `CCCN(CC)S(=O)(=O)N=C(NC)N1CC(c2ccccc2)C(c2ccc(Cl)cc2)=N1` (stereo not shown) [Example 1, 3-(4-Chlorophenyl)-N′-(((ethyl)propylamino)sulfonyl)-N-methyl-4-phenyl-4,5-dihydro-1H-pyrazole-1-carboxamidine], the melting point was 129 to 131 °C. The figure for `CCN(CC)S(=O)(=O)N=C(NCCO)N1CC(c2ccccc2)C(c2ccc(Cl)cc2)=N1` (stereo not shown) [Example 3, 3-(4-Chlorophenyl)-N′-((diethylamino)sulfonyl)-N-(2-hydroxyethyl)-4-phenyl-4,5-dihydro-1H-pyrazole-1-carboxamidine] is 104 to 106 °C; for `CN(C)S(=O)(=O)N=C(NCCO)N1CC(c2ccccc2)C(c2ccc(Cl)cc2)=N1` (stereo not shown) [Example 18, 3-(4-Chlorophenyl)-N′-((dimethylamino)sulfonyl)-N-(2-hydroxyethyl)-4-phenyl-4,5-dihydro-1H-pyrazole-1-carboxamidine] it is 123 to 126 °C; for `CCCN(CCC)S(=O)(=O)N=C(NC)N1CC(c2ccccc2)C(c2ccc(Cl)cc2)=N1` (stereo not shown) [Example 26, 3-(4-Chlorophenyl)-N′-((dipropylamino)sulfonyl)-N-methyl-4-phenyl-4,5-dihydro-1H-pyrazole-1-carboxamidine] it is 141 to 142 °C. The figure for `CCCNC(=NS(=O)(=O)N(C)C)N1CC(c2ccccc2)C(c2ccc(Cl)cc2)=N1` (stereo not shown) [Example 31, 3-(4-Chlorophenyl)-N′-((dimethylamino)sulfonyl)-N-propyl-4-phenyl-4,5-dihydro-1H-pyrazole-1-carboxamidine] is 127 to 129 °C; for `CN(C)S(=O)(=O)N=C(NCCF)N1CC(c2ccccc2)C(c2ccc(Cl)cc2)=N1` (stereo not shown) [Example 32, 3-(4-Chlorophenyl)-N′-((dimethylamino)sulfonyl)-N-(2-fluoroethyl)-4-phenyl-4,5-dihydro-1H-pyrazole-1-carboxamidine] it is 128 to 131 °C; for `CONC(=NS(=O)(=O)N(C)C)N1CC(c2ccccc2)C(c2ccc(Cl)cc2)=N1` (stereo not shown) [Example 34, 3-(4-Chlorophenyl)-N′-((dimethylamino)sulfonyl)-N-methoxy-4-phenyl-4,5-dihydro-1H-pyrazole-1-carboxamidine] it is 170 to 172 °C. As for `CSC(=NS(=O)(=O)N(C)C)N1CC(c2ccccc2)C(c2ccc(Cl)cc2)=N1` (stereo not shown) [Example 36, 3-(4-Chlorophenyl)-N-((dimethylamino)sulfonyl)-4-phenyl-4,5-dihydro-1H-pyrazole-1-carboximidothioic acid methyl ester], the melting point is 159 to 160 °C. With `CCN(CC)S(=O)(=O)N=C(SC)N1CC(c2ccccc2)C(c2ccc(Cl)cc2)=N1` (stereo not shown) [Example 37, 3-(4-Chlorophenyl)-N-((diethylamino)sulfonyl)-4-phenyl-4,5-dihydro-1H-pyrazole-1-carboximidothioic acid methyl ester] the figure was 141 to 143 °C. With `CSC(=NS(=O)(=O)N1CCc2ccccc2C1)N1CC(c2ccccc2)C(c2ccc(Cl)cc2)=N1` (stereo not shown) [Example 38, 3-(4-Chlorophenyl)-4-phenyl-N-((1,2,3,4-tetrahydroisoquinolin-2-yl)sulfonyl)-4,5-dihydro-1H-pyrazole-1-carboximidothioic acid methyl ester] the figure was 143 to 145 °C. With `CCN(c1ccccc1)S(=O)(=O)N=C(SC)N1CC(c2ccccc2)C(c2ccc(Cl)cc2)=N1` (stereo not shown) [Example 39, 3-(4-Chlorophenyl)-N-(((ethyl)phenylamino)sulfonyl)-4-phenyl-4,5-dihydro-1H-pyrazole-1-carboximidothioic acid methyl ester] the figure was 143 to 146 °C. Regarding `CCN(C)S(=O)(=O)N=C(SC)N1CC(c2cccnc2)C(c2ccc(Cl)cc2)=N1` (stereo not shown) [Example 44, 3-(4-Chlorophenyl)-N-(((ethyl)methylamino)sulfonyl)-4-(pyridin-3-yl)-4,5-dihydro-1H-pyrazole-1-carboximidothioic acid methyl ester], the melting point was 133 to 136 °C. `CSC(=NS(=O)(=O)N1CCCCC1)N1CC(c2cccnc2)C(c2ccc(Cl)cc2)=N1` (stereo not shown) [Example 45, 3-(4-Chlorophenyl)-N-((piperidin-1-yl)sulfonyl)-4-(pyridin-3-yl)-4,5-dihydro-1H-pyrazole-1-carboximidothioic acid methyl ester] yielded a melting point of 182 to 185 °C. With `CSC(=NS(=O)(=O)N1CCOCC1)N1CC(c2ccccc2F)C(c2ccc(Cl)cc2)=N1` (stereo not shown) [Example 47, 3-(4-Chlorophenyl)-4-(2-fluorophenyl)-N-((morpholin-4-yl)sulfonyl)-4,5-dihydro-1H-pyrazole-1-carboximidothioic acid methyl ester] the figure was 205 to 207 °C; with `CSC(=NS(=O)(=O)N1CCCCC1)N1CC(c2ccccc2F)C(c2ccc(Cl)cc2)=N1` (stereo not shown) [Example 48, 3-(4-Chlorophenyl)-4-(2-fluorophenyl)-N-((piperidin-1-yl)sulfonyl)-4,5-dihydro-1H-pyrazole-1-carboximidothioic acid methyl ester], 196 to 198 °C; with `CSC(=NS(=O)(=O)N1CCOCC1)N1CC(c2c(F)cccc2F)C(c2ccc(Cl)cc2)=N1` (stereo not shown) [Example 50, 3-(4-Chlorophenyl)-4-(2,6-difluorophenyl)-N-((morpholin-4-yl)sulfonyl)-4,5-dihydro-1H-pyrazole-1-carboximidothioic acid methyl ester], 231 to 233 °C.

Regarding `CSC(=NS(=O)(=O)N1CCCCC1)N1CC(c2c(F)cccc2F)C(c2ccc(Cl)cc2)=N1` (stereo not shown) [Example 51, 3-(4-Chlorophenyl)-4-(2,6-difluorophenyl)-N-((piperidin-1-yl)sulfonyl)-4,5-dihydro-1H-pyrazole-1-carboximidothioic acid methyl ester], the melting point fell in the range of 221 to 225 °C.
